Test results taken from paper PMC6556873, “Rapid Covalent-Probe Discovery by Electrophile-Fragment Screening” (Journal of the American Chemical Society, 2019).
Like-named read-outs stand apart in the source and are kept apart here.

Assays:
[1] = in vitro; set-up: species or system HB2, CCD841; conditions: human, hek293 cells
[2] = in vitro; set-up: species or system HB2, HEK293; conditions: human, ccd841 cells
[3] = molecular target: T1, OTUB2 (OTUB2A) (Homo sapiens, UniProt Q96DC9); set-up: Intact protein LC/MS covalent labelling, fragments in pools of five, 200 uM each, 4 °C; conditions: 24 h, 4 °C, pool of five; 200 µM; covalent
T1 construct: full length residues 1-234, E. coli BL21(DE3)-R3, His tag removed by TEV, construct 27312 Da
T1 sequence (Q96DC9 1-234): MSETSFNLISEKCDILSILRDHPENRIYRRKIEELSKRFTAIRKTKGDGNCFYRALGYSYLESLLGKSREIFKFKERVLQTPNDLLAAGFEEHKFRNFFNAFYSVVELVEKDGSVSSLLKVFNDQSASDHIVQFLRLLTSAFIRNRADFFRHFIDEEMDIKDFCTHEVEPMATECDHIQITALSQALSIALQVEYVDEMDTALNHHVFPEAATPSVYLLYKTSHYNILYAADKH

[4] = molecular target: T2, PCAF (Homo sapiens, UniProt Q92831); set-up: Intact protein LC/MS covalent labelling, fragments in pools of five, 200 uM each, 4 °C; conditions: 24 h, 4 °C, pool of five; 200 µM; covalent
T2 construct: gene KAT2B

[5] = molecular target: T3, NUDT7 (Homo sapiens, UniProt P0C024); set-up: Intact protein LC/MS covalent labelling, fragments in pools of five, 200 uM each, 4 °C; conditions: 24 h, 4 °C, pool of five; 200 µM; covalent
T3 construct: residues 14-235, E. coli, pNIC28-Bsa4, N-terminal His6 tag removed by TEV, construct 26672 Da

[6] = molecular target: T4, BSA (Bos taurus, UniProt P02769); set-up: Intact protein LC/MS covalent labelling, fragments in pools of five, 200 uM each, 4 °C; conditions: 24 h, 4 °C, pool of five; 200 µM; covalent
T4 construct: gene ALB

[7] = in vitro; set-up: species or system CCD841, HEK293; conditions: human, hb2 cells, read-out: HB-2 Cells Viability (%)

T3 sequence (P0C024 14-235): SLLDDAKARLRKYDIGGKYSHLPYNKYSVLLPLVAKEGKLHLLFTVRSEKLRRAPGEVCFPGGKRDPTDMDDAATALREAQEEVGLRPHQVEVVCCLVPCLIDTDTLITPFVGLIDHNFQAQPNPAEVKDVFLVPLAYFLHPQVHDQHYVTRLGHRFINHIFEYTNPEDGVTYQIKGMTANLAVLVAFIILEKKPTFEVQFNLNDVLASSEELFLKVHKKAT
T2 sequence (Q92831 whole entry, the tested form may be a part): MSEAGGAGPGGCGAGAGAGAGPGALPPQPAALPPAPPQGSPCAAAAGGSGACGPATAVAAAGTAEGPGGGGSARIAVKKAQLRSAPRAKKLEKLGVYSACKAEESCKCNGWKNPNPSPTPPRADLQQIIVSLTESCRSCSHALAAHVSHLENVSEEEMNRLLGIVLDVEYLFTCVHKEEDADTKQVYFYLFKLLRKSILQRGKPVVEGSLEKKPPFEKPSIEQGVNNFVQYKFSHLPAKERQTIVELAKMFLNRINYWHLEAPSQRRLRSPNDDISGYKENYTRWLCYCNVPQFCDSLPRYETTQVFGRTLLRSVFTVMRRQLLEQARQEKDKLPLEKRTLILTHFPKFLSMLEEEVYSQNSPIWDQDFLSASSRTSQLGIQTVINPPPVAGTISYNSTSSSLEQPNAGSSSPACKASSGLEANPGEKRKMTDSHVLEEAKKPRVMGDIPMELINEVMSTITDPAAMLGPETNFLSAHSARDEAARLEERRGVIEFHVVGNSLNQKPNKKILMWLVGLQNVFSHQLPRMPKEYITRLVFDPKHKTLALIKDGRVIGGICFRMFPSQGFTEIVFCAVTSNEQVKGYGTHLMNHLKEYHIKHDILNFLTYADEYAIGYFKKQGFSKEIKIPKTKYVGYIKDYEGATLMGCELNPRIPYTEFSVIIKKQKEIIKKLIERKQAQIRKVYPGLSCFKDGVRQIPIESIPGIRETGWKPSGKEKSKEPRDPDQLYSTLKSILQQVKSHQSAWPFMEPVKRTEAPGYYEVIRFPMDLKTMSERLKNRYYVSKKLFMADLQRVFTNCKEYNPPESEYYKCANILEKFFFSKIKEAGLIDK
T4 sequence (P02769 whole entry, the tested form may be a part): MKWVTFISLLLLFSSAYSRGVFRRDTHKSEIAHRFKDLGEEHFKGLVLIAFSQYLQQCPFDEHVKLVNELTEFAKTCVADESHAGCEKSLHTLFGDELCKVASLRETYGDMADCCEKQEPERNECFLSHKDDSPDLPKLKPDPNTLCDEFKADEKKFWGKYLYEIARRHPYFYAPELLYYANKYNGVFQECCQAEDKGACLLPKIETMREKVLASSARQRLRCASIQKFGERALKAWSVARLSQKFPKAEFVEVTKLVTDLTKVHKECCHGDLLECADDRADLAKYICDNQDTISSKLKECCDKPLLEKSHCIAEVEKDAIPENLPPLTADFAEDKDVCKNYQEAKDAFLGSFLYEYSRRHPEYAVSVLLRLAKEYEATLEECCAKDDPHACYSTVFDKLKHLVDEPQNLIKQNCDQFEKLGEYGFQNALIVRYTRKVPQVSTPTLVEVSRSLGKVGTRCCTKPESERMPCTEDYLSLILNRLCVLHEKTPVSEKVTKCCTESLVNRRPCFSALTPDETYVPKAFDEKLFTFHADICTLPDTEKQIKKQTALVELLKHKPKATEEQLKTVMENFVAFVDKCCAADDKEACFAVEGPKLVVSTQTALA

Row | Structure (SMILES) | viability at 48 h, 10 µM [1] [%] | viability at 48 h, 10 µM [2] [%] | OTUB2 [3] | PCAF [4] | NUDT7 [5] | BSA [6] | viability at 48 h, 10 µM [7] [%]
1 | Cl.O=C(CCl)N1CCN(c2cnccn2)CC1 [PCM-0102889] | 94.7 | 97.2 | 0 | 0 | 0 | 0 | 88.2
2 | O=C(CCl)Nc1ccc(Cl)nc1 [PCM-0102891] | 9 | 33.2 | 0 | 0 | 0.25 | 0 | 31.5
3 | CN(C(=O)CCl)c1nc2ccccc2s1 [PCM-0102894] | 87.7 | 83.6 | 0 | 0 | 0.34 | 0 | 88.4
4 | CC(=O)Nc1ccc(NC(=O)CCl)c(C(F)(F)F)c1 [PCM-0102895] | 82 | 91.7 | 0 | 0 | 0 | 0 | 97.1
5 | O=C(CCl)NCC1CCS(=O)(=O)C1 (stereo not shown) [PCM-0102896] | 117 | 92.3 | 0.23 | 0 | 0 | 0 | 102
6 | CN(Cc1cc(C#N)ccc1F)C(=O)CCl [PCM-0102897] | 9.6 | 69.2 | 0 | 0 | 0.07 | 0 | 23.8
7 | CN(Cc1cnn(C)c1)C(=O)CCl.Cl [PCM-0102899] | 70.7 | 91.9 | 0.26 | 0 | 0.08 | 0 | 101
8 | CCN(C(=O)CCl)c1ccc(F)cc1 [PCM-0102900] | 10.3 | 13.6 | 0 | 0 | 0.29 | 0 | 61.2
9 | Cc1nc(-c2ccc3c(c2)CCN3C(=O)CCl)cs1 [PCM-0102901] | 1.2 | 22.6 | 0 | 0 | 0.46 | 0 | 2.3
10 | COC(=O)CNC(=O)CCl [PCM-0102906] | 112 | 86.7 | 0.06 | 0 | 0 | 0 | 87.7
11 | CCC(C)NC(=O)NC(=O)CCl (stereo not shown) [PCM-0102908] | 88.7 | 91.8 | 0 | 0 | 0 | 0 | 110
12 | CC1CCC(NC(=O)CCl)CC1 (stereo not shown) [PCM-0102913] | 72.4 | 86.2 | 0.08 | 0 | 0 | 0 | 96.2
13 | O=C(CCl)Nc1ccc(Cl)cc1Cl [PCM-0102914] | 38.3 | 82.7 | 0.14 | 0 | 0.22 | 0 | 52.5
14 | O=C(CCl)Nc1ccc(N2CCCC2=O)cc1 [PCM-0102915] | 17.7 | 65.3 | 0.49 | 0 | 0 | 0 | 59.3
15 | CN(C(=O)CCl)C1(C#N)CCCCC1 [PCM-0102916] | 7.5 | 47.6 | 0 | 0 | 0 | 0 | 38
16 | O=C(CCl)N1CCN(Cc2ccccc2)C1=O [PCM-0102919] | 90.9 | 96.2 | 0.1 | 0 | 0 | 0 | 102
